We go through six compounds from article PMC10580313, “A Chemoproteomic Approach to Elucidate the Mechanism of Action of 6-Azasteroids with Unique Activity in Mycobacteria” (ACS Infectious Diseases, 2023).

Like-named read-outs stand apart in the source and are kept apart here. Some results are limits rather than exact numbers.

For assay [1], the system named is Mtb (CDC1551). In words: BDQ potentiation MIC99 microbroth assay, Mtb. Type of assay: cell-based, Mycobacterium tuberculosis. The conditions noted are these: 6-azasteroid fixed at 20 μM; relative to BDQ MIC99 without azasteroid. (In general: Dilution methods test growth across graded concentrations, often in twofold steps.)
The test system of assay [2] is Mm (BAA-535). Further details: method as in PMID 31012313. The conditions noted are these: normoxic conditions; cited from earlier work.
The subject of assay [3] is Mtb (CDC1551). Further details: method as in PMID 31012313. Particulars: normoxic conditions; cited from earlier work.
The next assay concerns Mtb. In words: MIC of 6-azasteroid alone, Mtb. It is filed as cell-based, Mycobacterium tuberculosis. Particulars: (MIC99 reported as micromolar).
Assay [4] deals with Mtb (CDC1551). Description: ROS sensitivity (CellROX Green) with or without cumene hydroperoxide. Type of assay: cell-based, Mycobacterium tuberculosis.
For another assay, the system named is HepG2 cells. Description: Cytotoxicity assay (Alamar Blue), HepG2. Type of assay: cell-based, human. The conditions noted are these: read-out: Mammalian Cell IC50, HepG2. On the technique in general: The colour change of resazurin is a common sign of viable cells or microbes.
For assay [5], the system named is mammalian cells (HepG2 and THP-1). Description: Cytotoxicity in mammalian cells, cell line not given. The conditions noted are these: read-out: IC50 in mammalian cells.
The subject of a further assay is Mtb CDC1551. Description: Intracellular ATP levels under BDQ cotreatment. Particulars: 96 h.
Assay [6] deals with Mm (BAA-535). In words: BDQ potentiation MIC99 microbroth assay, Mm. Type of assay: cell-based, Mycobacterium marinum. The conditions noted are these: 6-azasteroid fixed at 20 μM; relative to BDQ MIC99 without azasteroid.
A further assay has as its system Mtb and Mm. Description: BDQ potentiation MIC99 assay, species not given. It is filed as cell-based. Particulars: 6-azasteroid at 20 μM; species not stated.
A further assay has as its system THP-1 cells. In words: Cytotoxicity assay (Alamar Blue), THP-1. Type of assay: cell-based. Particulars: Homo sapiens, THP-1, 72 h, read-out: Mammalian Cell IC50, THP1.
The next assay deals with Mm. In words: MIC of 6-azasteroid alone, Mm. Type of assay: cell-based, Mycobacterium marinum. The conditions noted are these: (micromolar).
Assay [7] deals with T1, recombinant Mtb 3β-Hsd (Rv1106c) (Mycobacterium tuberculosis, UniProt P9WQP7).
T1 construct: made in house
Type of assay: biochemical. Particulars: 50 μM 6-azasteroid.

T1 sequence (P9WQP7 whole entry): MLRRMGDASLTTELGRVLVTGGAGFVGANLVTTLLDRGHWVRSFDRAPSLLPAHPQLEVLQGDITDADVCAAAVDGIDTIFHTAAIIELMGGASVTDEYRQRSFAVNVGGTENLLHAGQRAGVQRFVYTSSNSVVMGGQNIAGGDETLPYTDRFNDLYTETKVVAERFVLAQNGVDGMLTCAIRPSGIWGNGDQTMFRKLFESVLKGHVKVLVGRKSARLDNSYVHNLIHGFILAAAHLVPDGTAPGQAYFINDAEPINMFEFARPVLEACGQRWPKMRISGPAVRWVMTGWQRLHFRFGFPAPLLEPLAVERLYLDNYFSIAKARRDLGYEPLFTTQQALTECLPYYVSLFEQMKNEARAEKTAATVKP

As usually defined, the IC50 is the point on the concentration scale where inhibition reaches its midpoint. In the case of `CCCN1CC2C3CCC(C(=O)Nc4cc(C(C)(C)C)ccc4C(C)(C)C)[C@@]3(C)CCC2[C@@]2(C)CCC(=O)C=C12` (some centres unmarked) [compound 2], the “Fold ∆ of BDQ MIC, Mtb” value with Mtb (CDC1551) [1] was determined as 8 fold. Further, the “potentiation of the activity of isoniazid and BDQ, Mm” value with Mm (BAA-535) [2] was 8 fold. In addition, in the assay with Mtb (CDC1551) [3], the “potentiation of the activity of isoniazid and BDQ, Mtb” value was 8 fold. In addition, the “Mtb MIC Alone” value in the assay on Mtb was 37 µM. In the assay with Mtb (CDC1551) [4] (20 μM pretreatment 6 h, then 5 mM CHP 30 min, versus not pretreated), the “intracellular oxidants after exogenous CHP, 6-azasteroid pretreatment” value is “greater accumulation of intracellular oxidants”. For the same compound, the “effect on intracellular ROS levels, 6-azasteroid alone” value in the assay on Mtb (CDC1551) [4] (20 μM, 6 h, no peroxide) is “negligible effect”. Further, the IC50 in the assay with HepG2 cells (Homo sapiens, HepG2, 72 h) is 21 µM; in assay [5], 25 µM; with THP-1 cells, 24 µM. The “cellular ATP concentration in combination with BDQ, relative to BDQ treatment” value in the assay with Mtb CDC1551 (6-azasteroid 5 and 20 μM plus BDQ) is “less than 50%”. Further, in the assay on Mtb CDC1551 (20 or 5 μM, no BDQ), the “ATP production, 6-azasteroid alone” value was “not greatly affected”. The “Fold ∆ of BDQ MIC, Mm” value in the assay with Mm (BAA-535) [6] came to 9 fold. In addition, in the assay with Mtb and Mm, the “reduction in BDQ MIC99” value is given as “greater than 8 fold”.

In the case of `C[C@]12CCC3C(CN(CCC(F)(F)F)C4=CC(=O)CC[C@@]43C)C1CCC2C(=O)Nc1cc(C(F)(F)F)ccc1C(F)(F)F` (some centres unmarked) [compound 9], the “MIC Alone (Mm)” value with Mm is more than 20 µM. Also, the IC50 in the assay on HepG2 cells (72 h) was more than 100 µM. In addition, the “Fold ∆ of BDQ MIC, Mm” value in the assay with Mm (BAA-535) [6] was 4 fold.

As to `CCCN1CC2C3CCC(C(=O)NC(c4ccc(F)cc4)c4ccc(C(F)(F)F)cc4)[C@@]3(C)CCC2[C@@]2(C)CCC(=O)C=C12` (some centres unmarked) [compound 16], the “Fold ∆ of BDQ MIC, Mtb” value with Mtb (CDC1551) [1] turned out to be 64 fold. For the same compound, in the assay on Mtb, the “Mtb MIC Alone” value is more than 20 µM. For the same compound, the “inhibition of 3β-Hsd activity” value in assay [7] is “greater than 50%”.

Consider `C[C@]12CCC3C(CN(CCCF)C4CC(=O)CC[C@]34C)C1CCC2C(=O)NC(c1ccc(OC(F)(F)F)cc1)c1ccc(OC(F)(F)F)cc1` (some centres unmarked) [compound 41], for which the “MIC Alone (Mm)” value in the assay with Mm was more than 20 µM. The IC50 with HepG2 cells (72 h) was more than 100 µM. Besides, the “Fold ∆ of BDQ MIC, Mm” value in the assay on Mm (BAA-535) [6] amounted to 5 fold.

Regarding `C[C@]12CCC3C(CN(CCC(F)(F)F)C4CC(=O)CC[C@]34C)C1CCC2C(=O)NC(c1ccc(OC(F)(F)F)cc1)c1ccc(OC(F)(F)F)cc1` (some centres unmarked) [compound 42], the “MIC Alone (Mm)” value with Mm was more than 20 µM. Besides, the IC50 in the assay on HepG2 cells (72 h) is more than 100 µM. Besides, the “Fold ∆ of BDQ MIC, Mm” value with Mm (BAA-535) [6] was 1 fold.

As to `C[C@]12CCC3C(CNC4=CC(=O)CC[C@@]43C)C1CCC2C(=O)Nc1ccc(C(=O)c2ccccc2)cc1` (some centres unmarked) [compound 43], the “Fold ∆ of BDQ MIC, Mtb” value in the assay with Mtb (CDC1551) [1] worked out at 8 fold. Further, the “MIC Alone (Mm)” value in the assay with Mm is more than 20 µM. The IC50 in the assay on HepG2 cells (72 h) is more than 100 µM. Besides, the “Fold ∆ of BDQ MIC, Mm” value with Mm (BAA-535) [6] is 2 fold.
